From ChEMBL document CHEMBL4819124, “Folate-targeted verrucarin A reduces the number of activated macrophages in a mouse model of acute peritonitis” (Bioorg Med Chem Lett, 2021)
Active and inactive are the calls of the source. The rule behind the calls is not given here. *1 amine or outer side, *2 acyl side, *3 side chain or, on linkers, in order; H or OH if unused. Where a SMILES comes first, the peptide text is derived from it. The star is where a group is joined. Pteroyl = Nc1nc2ncc(CNc3ccc(C(=O)*)cc3)nc2c(=O)[nH]1; γGlu = O=C(O)[C@H](CCC(=O)[*:2])N[*:1]

Assays:
Mus musculus [1] = assay: (§1) Antiinflammatory activity against mouse model of thioglycolate induced peritonitis assessed as effect on granulocytes in peritoneal fluid at 1000 nmol/kg, ip dosed twice everyday measured after 3 days by staining based flow cytometric analysis relative to control; type: functional, organism-based; conditions: time 3.0 day
Mus musculus [2] = assay: as §1, with “decrease in FR+ macrophages” for “effect on granulocytes”, “by Alexafluor-488 goat anti-rabbitIgG” for “by”; type: functional, organism-based; conditions: time 3.0 day
RAW264.7 = assay: Cytotoxicity against mouse RAW264.7 cells assessed as reduction in cell viability treated for 1 hr followed by 72 hrs incubation in drug free media by [3H]-thymidine incorporation assay; type: functional, cell-based
Mus musculus [3] = assay: Antiinflammatory activity against mouse model of thioglycolate induced peritonitis assessed as decrease in total macrophage population in peritoneal fluid at 1000 nmol/kg, ip dosed twice everyday measured after 3 days by staining based flow cytometric analysis relative to control; type: functional, organism-based; conditions: time 3.0 day
KB = assay: Cytotoxicity against human KB cells assessed as reduction in cell viability treated for 1 hr followed by 72 hrs incubation in drug free media by [3H]-thymidine incorporation assay; type: cell-based
Mus musculus [4] = assay: Antiinflammatory activity against mouse model of thioglycolate induced peritonitis assessed as effect on lymphocytes in peritoneal fluid at 1000 nmol/kg, ip dosed twice everyday measured after 3 days by staining based flow cytometric analysis relative to control; type: functional, organism-based; conditions: time 3.0 day
Folate receptor beta = Folate receptor beta (Homo sapiens, UniProt P14207); assay: Displacement of [3H]-folic acid from FRbeta (unknown origin) expressed in mouse RAW264.7 cells after 1 hr; type: cell-based
Sequence of Folate receptor beta (P14207 whole entry): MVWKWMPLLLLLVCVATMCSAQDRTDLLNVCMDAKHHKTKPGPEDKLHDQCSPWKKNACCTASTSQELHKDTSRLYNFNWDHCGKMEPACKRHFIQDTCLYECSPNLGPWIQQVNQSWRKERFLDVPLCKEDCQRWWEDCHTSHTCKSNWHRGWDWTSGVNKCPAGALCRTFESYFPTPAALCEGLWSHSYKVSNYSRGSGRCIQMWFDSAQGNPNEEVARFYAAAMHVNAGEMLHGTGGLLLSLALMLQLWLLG

Folate receptor alpha = Folate receptor alpha (Homo sapiens, UniProt P15328); assay: Displacement of [3H]-folic acid from FRalpha (unknown origin) expressed in human KB cells after 1 hr; type: cell-based
Sequence of Folate receptor alpha (P15328 whole entry): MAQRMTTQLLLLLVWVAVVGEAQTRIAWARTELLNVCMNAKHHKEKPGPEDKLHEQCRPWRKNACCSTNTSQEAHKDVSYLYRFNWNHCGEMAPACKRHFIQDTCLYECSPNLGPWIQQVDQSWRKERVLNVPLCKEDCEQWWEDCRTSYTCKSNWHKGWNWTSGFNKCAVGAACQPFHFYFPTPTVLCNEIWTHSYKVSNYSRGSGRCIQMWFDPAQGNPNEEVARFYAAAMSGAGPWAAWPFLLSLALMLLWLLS

| Compound | Activity (Mus musculus [1]) | Activity (Mus musculus [2]) | IC50 (RAW264.7) [nM] | Activity (Mus musculus [3]) | IC50 (KB) [nM] | Activity (Mus musculus [4]) | IC50 (Folate receptor beta) [nM] | IC50 (Folate receptor alpha) [nM] |
| --- | --- | --- | --- | --- | --- | --- | --- | --- |
| CC1=C[C@H]2O[C@@H]3C[C@H]4OC(=O)/C=C\C=C\C(=O)OCC[C@@H](C)[C@H](OC(=O)OCCSSC[C@H](NC(=O)[C@H](CC(=O)O)NC(=O)[C@H](CC(=O)O)NC(=O)[C@H](CCCNC(=N)N)NC(=O)[C@H](CC(=O)O)NC(=O)CC[C@H](NC(=O)c5ccc(NCc6cnc7nc(N)[nH]c(=O)c7n6)cc5)C(=O)O)C(=O)O)C(=O)OC[C@@]2(CC1)[C@]4(C)[C@]31CO1 | inactive | Active | 8.5 | Active | 525 | inactive | – | – |
| N=C(N)NCCC[C@H](NC(=O)[C@H](CC(=O)O)NC(=O)CC[C@H](NC(=O)c1ccc(NCc2cnc3nc(N)[nH]c(=O)c3n2)cc1)C(=O)O)C(=O)N[C@@H](CC(=O)O)C(=O)N[C@@H](CC(=O)O)C(=O)N[C@@H](CS)C(=O)O ({Pteroyl-γGlu}-DRDDC-OH) | – | – | – | – | – | – | 0.56 | 1.4 |
